The target in this test is T1, Human pyruvate kinase R (PKR) (Homo sapiens, UniProt P30613).
T1 construct: Human pyruvate kinase R (PKR), residues 14-574; 6x-His (N, cleaved yes); 8x-Arg (N, cleaved yes); SUMO (N, cleaved yes); host or cells: E. coli
Description: Biochemical assay for activation of pyruvate kinase R (Kinase-Glo luminescence, ATP generation). Conditions: for AC50: 0.1 nM PKR, 2 mM FBP, 0.3 mM ADP, 0.1 mM PEP; for PKR % activation: maximal activation level relative to the activation level achieved by AG-348 @ 10 μM. The procedure: Proteins were translated as fusions with 6×-His, 8×-Arg, and SUMO at the N-terminus. […] All proteins were cloned, expressed in E. coli, and purified using similar protocols. Cells were grown at 30° C. in Luria-Bertani broth supplemented with 0.4% glucose to OD600=0.8 and induced with 0.4 mM IPTG at 16° C. for 18 hours. Cells were harvested by centrifugation, resuspended in 50 mM potassium phosphate pH 8.0, 500 mM NaCl, 25 mM imidazole pH 8.0, and 3 mM β-mercaptoethanol. Cells were lysed using a LM20 microfluidizer from Microfluidics (Westwood, Mass.). The crude lysate was immediately supplemented with 0.2 mM phenylmethylsulfonyl fluoride (PMSF) and centrifuged at 20,000 g for 20 minutes. The soluble fraction was subsequently incubated with 2 mL Ni-NTA (GE Healthcare) per 1,000 ODs for 1 hour at 4° C. Following incubation with the Ni-NTA resin, lysate was removed by pelleting resin at 2,500 g for 3 minutes and washed 3 times with 9 bed volumes of 50 mM potassium phosphate pH 8.0, 500 mM NaCl, 25 mM imidazole, and 3 mM β-mercaptoethanol. Following the batch wash Ni-NTA resin was loaded onto a gravity column and His-tagged protein was eluted with 6 bed volumes of 10 mM Tris/HCl pH 8.0, 200 mM NaCl, 500 mM imidazole, and 3 mM β-mercaptoethanol. Eluted protein was dialyzed overnight against 10 mM Tris/HCl pH 8.0, 200 mM NaCl, and 1 mM DTT and the 6×-His-8×-Arg-SUMO-tag was cleaved using a 20:1 molar ratio of protein:3C protease. The protein was purified by anion exchange chromatography on a HiTrapQ or MonoQ 10/100 GL column (GE Healthcare) via a linear NaCl gradient and twice by size exclusion chromatography using a Superdex S200 26/60 column (GE Healthcare) run in 10 mM Tris/HCl pH 8.0, 200 mM NaCl, 10 mM MgCl2, 1 mM DTT. Proteins were concentrated to ˜12 mg/mL for crystallization and flash frozen for storage.
Biochemical Assay for Activation of Pyruvate Kinase R
Activation of pyruvate kinase R (PKR) and pyruvate kinase M2 (PKM2) were measured using a luminescence based measurement of ATP generation and the Kinase-Glo luminescent kinase reagent kit.
In general terms: Kinase-Glo measures the ATP left after a reaction by luminescence.

SMILES strings stand for the structures.

T1 sequence (P30613 14-574): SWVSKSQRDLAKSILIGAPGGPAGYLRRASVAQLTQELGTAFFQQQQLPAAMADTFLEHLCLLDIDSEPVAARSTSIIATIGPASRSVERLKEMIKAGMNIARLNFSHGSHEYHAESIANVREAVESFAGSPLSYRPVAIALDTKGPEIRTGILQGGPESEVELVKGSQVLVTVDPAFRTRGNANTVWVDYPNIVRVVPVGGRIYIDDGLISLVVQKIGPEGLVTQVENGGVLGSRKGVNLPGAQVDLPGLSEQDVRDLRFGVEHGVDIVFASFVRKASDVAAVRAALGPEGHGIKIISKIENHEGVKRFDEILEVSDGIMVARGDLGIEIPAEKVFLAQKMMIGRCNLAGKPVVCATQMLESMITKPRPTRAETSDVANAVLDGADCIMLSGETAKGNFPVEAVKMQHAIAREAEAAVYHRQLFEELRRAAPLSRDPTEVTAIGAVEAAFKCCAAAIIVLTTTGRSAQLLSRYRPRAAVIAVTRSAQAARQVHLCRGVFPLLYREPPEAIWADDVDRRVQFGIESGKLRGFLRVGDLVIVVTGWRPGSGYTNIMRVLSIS

As usually defined, the AC50 is the midpoint of the concentration-response curve, whichever way the signal moves. In the case of `O=C(C(CO)c1ccncc1)N1Cc2cn(S(=O)(=O)c3ccc4ncsc4c3)nc2C1` (racemic) [Compound 27, 1-[2-(1,3-benzothiazole-6-sulfonyl)-2H,4H,5H,6H-pyrrolo[3,4-c]pyrazol-5-yl]-3-hydroxy-2-(pyridin-4-yl)propan-1-one], the half-maximal activity concentration (AC50) amounted to 39 nM.

For the compound `COC(C(=O)N1Cc2cn(S(=O)(=O)c3ccc(OC(F)F)cc3)nc2C1)c1ccccc1F` (racemic) [Compound 98, 1-{2-[4-(difluoromethoxy)benzenesulfonyl]-2H,4H,5H,6H-pyrrolo[3,4-c]pyrazol-5-yl}-2-(2-fluorophenyl)-2-methoxyethan-1-one], the AC50 came out at 210 nM.

`O=C([C@H](CO)c1ccccc1)N1Cc2cn(S(=O)(=O)c3ccc4ncsc4c3)nc2C1` (single isomer, unassigned) [Compound 2, (2S)-1-[2-(1,3-benzothiazole-6-sulfonyl)-2H,4H,5H,6H-pyrrolo[3,4-c]pyrazol-5-yl]-3-hydroxy-2-phenylpropan-1-one or (2R)-1-[2-(1,3-benzothiazole-6-sulfonyl)-2H,4H,5H,6H-pyrrolo[3,4-c]pyrazol-5-yl]-3-hydroxy-2-phenylpropan-1-one]: the activity was half-maximal at 556 nM (AC50) and the PKR % activation stood at 127%.

For the compound `O=C([C@@H](CO)c1ccccc1)N1Cc2cn(S(=O)(=O)c3ccc(OC(F)F)cc3)nc2C1` (single isomer, unassigned) [Compound 8, (2R)-1-{2-[4-(difluoromethoxy)benzenesulfonyl]-2H,4H,5H,6H-pyrrolo[3,4-c]pyrazol-5-yl}-3-hydroxy-2-phenylpropan-1-one, or (2S)-1-{2-[4-(difluoromethoxy)benzenesulfonyl]-2H,4H,5H,6H-pyrrolo[3,4-c]pyrazol-5-yl}-3-hydroxy-2-phenylpropan-1-one], the activity was half-maximal at 1980 nM (AC50) and the PKR % activation is 152%.

For the compound `O=C(N1Cc2cn(S(=O)(=O)c3ccc4ncsc4c3)nc2C1)[C@]1(c2ccccn2)CCOC1` (single isomer, unassigned) [Compound 19, 6-({5-[(3S)-3-(pyridin-2-yl)oxolane-3-carbonyl]-2H,4H,5H,6H-pyrrolo[3,4-c]pyrazol-2-yl}sulfonyl)-1,3-benzothiazole or 6-({5-[(3R)-3-(pyridin-2-yl)oxolane-3-carbonyl]-2H,4H,5H,6H-pyrrolo[3,4-c]pyrazol-2-yl}sulfonyl)-1,3-benzothiazole], the AC50 turned out to be 699 nM and the PKR % activation worked out at 59%.

For the compound `Cc1ccc(C2(C(=O)N3Cc4cn(S(=O)(=O)c5ccc6ncsc6c5)nc4C3)CCOC2)cn1` (single isomer, unassigned) [Compound 31, 6-({5-[(3S)-3-(6-methylpyridin-3-yl)oxolane-3-carbonyl]-2H,4H,5H,6H-pyrrolo[3,4-c]pyrazol-2-yl}sulfonyl)-1,3-benzothiazole or 6-({5-[(3R)-3-(6-methylpyridin-3-yl)oxolane-3-carbonyl]-2H,4H,5H,6H-pyrrolo[3,4-c]pyrazol-2-yl}sulfonyl)-1,3-benzothiazole], the AC50 came out at 173 nM.

As for `Cc1cccc([C@@]2(C(=O)N3Cc4cn(S(=O)(=O)c5ccc6ncsc6c5)nc4C3)CCOC2)n1` (single isomer, unassigned) [Compound 36, 6-({5-[(3S)-3-(6-methylpyridin-2-yl)oxolane-3-carbonyl]-2H,4H,5H,6H-pyrrolo[3,4-c]pyrazol-2-yl}sulfonyl)-1,3-benzothiazole or 6-({5-[(3R)-3-(6-methylpyridin-2-yl)oxolane-3-carbonyl]-2H,4H,5H,6H-pyrrolo[3,4-c]pyrazol-2-yl}sulfonyl)-1,3-benzothiazole], the AC50 came to 591 nM and the PKR % activation worked out at 38%.

Turning to `CC(CO)(C(=O)N1Cc2cn(S(=O)(=O)c3ccc4ncsc4c3)nc2C1)c1ccccn1` (single isomer, unassigned) [Compound 43, (2R)-1-[2-(1,3-benzothiazole-6-sulfonyl)-2H,4H,5H,6H-pyrrolo[3,4-c]pyrazol-5-yl]-3-hydroxy-2-methyl-2-(pyridin-2-yl)propan-1-one or (2S)-1-[2-(1,3-benzothiazole-6-sulfonyl)-2H,4H,5H,6H-pyrrolo[3,4-c]pyrazol-5-yl]-3-hydroxy-2-methyl-2-(pyridin-2-yl)propan-1-one], the AC50 was found to be 75 nM. That is a double-digit nanomolar value.

For `C[C@@](CO)(C(=O)N1Cc2cn(S(=O)(=O)c3ccc4ncsc4c3)nc2C1)c1ccccn1` (single isomer, unassigned) [Compound 44, (2R)-1-[2-(1,3-benzothiazole-6-sulfonyl)-2H,4H,5H,6H-pyrrolo[3,4-c]pyrazol-5-yl]-3-hydroxy-2-methyl-2-(pyridin-2-yl)propan-1-one or (2S)-1-[2-(1,3-benzothiazole-6-sulfonyl)-2H,4H,5H,6H-pyrrolo[3,4-c]pyrazol-5-yl]-3-hydroxy-2-methyl-2-(pyridin-2-yl)propan-1-one], the activity was half-maximal at 550 nM (AC50) and the PKR % activation is given as 86%.

For the compound `O=C(N1Cc2cn(S(=O)(=O)c3ccc4c(c3)NCCO4)nc2C1)[C@]1(c2ccccn2)CCOC1` (single isomer, unassigned) [Compound 45, 6-({5-[(3S)-3-(pyridin-2-yl)oxolane-3-carbonyl]-2H,4H,5H,6H-pyrrolo[3,4-c]pyrazol-2-yl}sulfonyl)-3,4-dihydro-2H-1,4-benzoxazine or 6-({5-[(3R)-3-(pyridin-2-yl)oxolane-3-carbonyl]-2H,4H,5H,6H-pyrrolo[3,4-c]pyrazol-2-yl}sulfonyl)-3,4-dihydro-2H-1,4-benzoxazine], the AC50 stood at 15 nM and the PKR % activation is 94%.

Turning to `O=C(N1Cc2cn(S(=O)(=O)c3ccc4c(c3)NCCO4)nc2C1)[C@]1(c2ccccn2)CCOC1` (single isomer, unassigned) [Compound 46, 6-({5-[(3S)-3-(pyridin-2-yl)oxolane-3-carbonyl]-2H,4H,5H,6H-pyrrolo[3,4-c]pyrazol-2-yl}sulfonyl)-3,4-dihydro-2H-1,4-benzoxazine or 6-({5-[(3R)-3-(pyridin-2-yl)oxolane-3-carbonyl]-2H,4H,5H,6H-pyrrolo[3,4-c]pyrazol-2-yl}sulfonyl)-3,4-dihydro-2H-1,4-benzoxazine], the activity was half-maximal at 129 nM (AC50) and the PKR % activation turned out to be 45%.

For `Cc1ncccc1[C@@H](N)C(=O)N1Cc2cn(S(=O)(=O)c3ccc4ncsc4c3)nc2C1` (single isomer, unassigned) [Compound 47, (2R)-2-amino-1-[2-(1,3-benzothiazole-6-sulfonyl)-2H,4H,5H,6H-pyrrolo[3,4-c]pyrazol-5-yl]-2-(2-methylpyridin-3-yl)ethan-1-one or (2S)-2-amino-1-[2-(1,3-benzothiazole-6-sulfonyl)-2H,4H,5H,6H-pyrrolo[3,4-c]pyrazol-5-yl]-2-(2-methylpyridin-3-yl)ethan-1-one], the AC50 worked out at 64 nM and the PKR % activation is on record as 40%.

In the case of `C[C@@](CO)(C(=O)N1Cc2cn(S(=O)(=O)c3ccc4c(c3)OCCO4)nc2C1)c1ccccn1` (single isomer, unassigned) [Compound 48, (2R)-1-[2-(2,3-dihydro-1,4-benzodioxine-6-sulfonyl)-2H,4H,5H,6H-pyrrolo[3,4-c]pyrazol-5-yl]-3-hydroxy-2-methyl-2-(pyridin-2-yl)propan-1-one or (2S)-1-[2-(2,3-dihydro-1,4-benzodioxine-6-sulfonyl)-2H,4H,5H,6H-pyrrolo[3,4-c]pyrazol-5-yl]-3-hydroxy-2-methyl-2-(pyridin-2-yl)propan-1-one], half-maximal activity (AC50) was put at 223 nM and the PKR % activation came out at 46%.

`O=C(N1Cc2cn(S(=O)(=O)c3ccc4ncsc4c3)nc2C1)C1(c2ccccc2)CCCN1` (single isomer, unassigned) [Compound 54, 6-({5-[(2S)-2-phenylpyrrolidine-2-carbonyl]-2H,4H,5H,6H-pyrrolo[3,4-c]pyrazol-2-yl}sulfonyl)-1,3-benzothiazole or 6-({2-[(2R)-2-phenylpyrrolidine-2-carbonyl]-2H,4H,5H,6H-pyrrolo[3,4-c]pyrazol-2-yl}sulfonyl)-1,3-benzothiazole] showed an AC50 of 4000 nM.

The record behind these values is US20230159538A1, “PYRROLIDINE-PYRAZOLES AS PYRUVATE KINASE ACTIVATORS” (Global Blood Therapeutics, Inc., priority 2020, published 2023).
